Experimental data from PMC6788984, “High-potency ligands for DREADD imaging and activation in rodents and monkeys” (Nature Communications, 2019).
Values joined by “and” are separate entries in the source; they are usually repeats but may differ in a detail not shown here. Identical values can stand only once. Like-named read-outs stand apart in the source and are kept apart here.

How the values were obtained:
[1] = Brain and serum concentrations in mice after IP injection (LC-MS/MS); format: in vivo, mouse; details: for brain/serum concentration ratio: 1 mg kg-1 IP; for Kp: C57BL/6J, mouse, brain/serum, ip, 0.1 mg kg-1, mice, read-out: brain/serum concentration ratio; for Kp / brain to serum concentration ratio / brain concentration, mean / serum concentration, mean: 0.1 mg kg-1 IP; for brain to serum concentration ratio: 30 min
Experimental: Monkey blood and CSF samples were collected from totally implanted subcutaneous access ports (Access Technologies, Virginia), connected to catheters indwelling in the femoral artery or intrathecal space of the spinal column, respectively. Rodent blood samples and brains were collected immediately following sacrifice at the indicated time points after intraperitoneal injection (10 ml kg^−1) in buffered saline. CSF was immediately frozen on dry ice and stored at −80 °C. Blood samples were allowed to coagulate for 15 min and then centrifuged at 4 °C for 15 min. Serum was collected from the supernatant and stored at a minimum of −30 °C until extraction. To 25 µl of serum, 5 µl of internal standard and 110 µl of methanol were added. Samples were centrifuged for 10 min at 16,200×g at 4 °C and the supernatant was transferred to the autosampler vial for analysis. Brains were cut in half and weighed prior to sample preparation. Half brains were homogenized in 490 µl of 85% ethanol: 15% water containing 0.1% formic acid and 5 µl of internal standard using a polytron homogenizer and centrifuged for 10 min at 16,200×g at 4 °C. A 300 µl of supernatant was dried under a stream of nitrogen and resuspended in 150 µl methanol. The resuspended solution was then centrifuged and 100 µl of supernatant was transferred to the autosampler vial for analysis.
Data were acquired using a Nexera XR HPLC (Shimadzu) coupled with a QTRAP 6500 (SCIEX), and was analyzed with Analyst 1.6 (SCIEX). The positive-ion mode data were obtained using multiple reaction monitoring (MRM). The instrumental source setting for curtain gas, ion spray voltage, temperature, ion source gas 1, and ion source gas 2 were 30 psi, 5500 V, 500 C, […], respectively.
Mobile phase A consisted of water containing 0.1% formic acid and mobile phase B was methanol containing 0.1% formic acid. […] The injection volume per sample was 10 μl. Samples were kept at 4 °C in the autosampler tray prior to injection.
The data were measured using standard curves and quality controls, but it was not validated to ICH guidelines. […] Quality control standards (low, middle and high) were prepared by adding the spiking standard to solution to 25 μl of serum and/or a half-brain and relative values are reported.

[2] = target: hM3Dq (Homo sapiens, UniProt P20309, A239G/Y149C)
From the text: (§1) Wild-type mice (C57BL/6J) were ordered from Jackson Laboratories and rats (Sprague–Dawley) were ordered from Charles River. Rodents were male and ordered at ~6 weeks of age. Transgenic mice were bred at NIDA breeding facility. […] Three male rhesus monkeys (Macaca mulatta) weighed 8–12 kg. All experiments and procedures complied with all relevant ethical regulations for animal testing and research and followed NIH guidelines and were approved by each institute’s animal care and use committees.
(§2) Ten minutes after injection, animals were placed in an open field arena (Opto-varimex ATM3, Columbus Instruments) and their locomotor activity was tracked during 60 min as infrared beam crossings and traveled distance was converted to cm. Animals were repeatedly tested on consecutive sessions (after an initial habituation session with no drug treatment) in a counterbalanced design.

[3] = target: T1, hM4Di (Homo sapiens, UniProt P08173, A203G/Y113C); experiment: BRET Galpha-o1 protein activation assay in HEK-293 cells transfected with hM4Di; format: cell-based; design: host or cells: HEK-293; details: for hM4Di activation, concentration-response points: replicates; for EC50: BRET-based assay in HEK-293 cells
T1 sequence (P08173 1-479 Y113C/A203G): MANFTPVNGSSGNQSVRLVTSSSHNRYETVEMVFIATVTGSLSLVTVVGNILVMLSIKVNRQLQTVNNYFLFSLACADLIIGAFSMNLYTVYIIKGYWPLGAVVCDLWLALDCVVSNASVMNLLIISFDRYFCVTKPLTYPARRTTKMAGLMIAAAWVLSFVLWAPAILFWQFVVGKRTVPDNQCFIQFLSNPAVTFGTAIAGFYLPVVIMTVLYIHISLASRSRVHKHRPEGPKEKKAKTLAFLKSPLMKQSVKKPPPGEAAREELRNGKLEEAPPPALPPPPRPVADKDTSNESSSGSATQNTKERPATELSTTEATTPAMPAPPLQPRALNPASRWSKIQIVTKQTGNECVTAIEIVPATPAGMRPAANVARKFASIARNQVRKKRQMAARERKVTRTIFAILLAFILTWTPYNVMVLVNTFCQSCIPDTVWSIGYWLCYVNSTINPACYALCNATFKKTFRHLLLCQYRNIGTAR
Experimental: The indicated amount of cDNA was transfected into HEK-293 cells using polyethylenimine (PEI; Sigma-Aldrich) in a 1–2 DNA:PEI ratio. Cell harvesting for radioligand binding experiments or signaling assays were performed approximately 48 h after transfection.
BRET assays were performed to detect receptor ligand-induced Gαo1 protein activation. […] Forty-eight hour after transfection cells were harvested, washed and resuspended in phosphate-buffered saline (PBS). Approximately, 200,000 cells/well were distributed in 96-well plates, and 5 µM Coelenterazine H (substrate for luciferase) was added to each well. Five minutes after addition of Coelenterazine H, ligands were added to each well. […] Results were calculated for the BRET change (BRET ratio for the corresponding drug minus BRET ratio in the absence of the drug) 5 min after the addition of the ligands.

[4] = target: T1, hM4Di; experiment: Locomotor activity in D1-hM4Di mice
From the text: as §1, §2

[5] = test system: striatal DREADDs; experiment: [11C]clozapine PET DREADD occupancy in AAV-DREADD mice; details: for occupancy of striatal DREADDs: 0.1 mg kg-1 IP
Experimental: Animals were anesthetized with isoflurane or a mix of ketamine/xylazine and prepped on a stereotaxic apparatus (Kopf, Germany). […] When indicated, animals were pretreated with vehicle or the indicated drug 10 min before the injection of the PET radiotracer. Total acquisition time was 60 min.
In all cases, the PET data were reconstructed and corrected for dead-time and radioactive decay. All qualitative and quantitative assessments of PET images were performed using the PMOD software environment (PMOD Technologies, Zurich Switzerland). Binding potential BPND (a relative measure of specific binding) was calculated using a reference tissue model using the cerebellum as a reference tissue in rodents. In macaques, the kinetic data were fitted to a two-tissue compartment model and the concentration of parent in plasma was used as an input function, then the volume of distribution ratios compared to cerebellum were calculated to establish BPND. In all cases, the dynamic PET images were coregistered to MRI templates and time-activity curves were generated using predefined volumes of interest (macaques) or manually drawn in rodents and the described analyses were performed. Receptor occupancy was calculated using the formula: occupancy = (BPND^0 − BPND^Drug)/BPND^0 × 100, where BPND^0 is the binding potential of the baseline condition and BPND^Drug the binding potential when the animals were pretreated with the drug.

[6] = target: T1, hM4Di; experiment: [3H]clozapine competition binding, membranes of HEK-293 cells expressing hM4Di
Experimental: Cells were routinely tested for myclopasma contamination (MycoAlert® Mycoplasma Detection Kit, Lonza). Cells were seeded on 60 cm^2 dishes at 4 × 10^6 cells/dish 24 h before transfection. The indicated amount of cDNA was transfected into HEK-293 cells using polyethylenimine (PEI; Sigma-Aldrich) in a 1–2 DNA:PEI ratio. Cell harvesting for radioligand binding experiments or signaling assays were performed approximately 48 h after transfection.
Cells were suspended in Tris-HCl 50 mM pH 7.4 supplemented with protease inhibitor cocktail (1:100, Sigma-Aldrich, St. Louis, MO, USA). The dissected brain tissue was diluted in Tris-HCl 50 mM buffer supplemented with protease inhibitor cocktail (1:1000). HEK-293 cells or brain tissue were disrupted with a Polytron homogenizer (Kinematica, Basel, Switzerland). Homogenates were centrifuged at 48,000g (50 min, 4 °C) and washed twice in the same conditions to isolate the membrane fraction. Protein was quantified by the bicinchoninic acid method (Pierce). […] In all cases, free and membrane-bound radioligand were separated by rapid filtration of 500-μl aliquots in a 96-well plate harvester (Brandel, Gaithersburg, MD, USA) and washed with 2 ml of ice-cold Tris-HCl buffer. […] One-site competition curves were fitted using Prism 7 (GraphPad Software, La Jolla, CA, USA). Ki values were calculated using the Cheng–Prusoff equation.

[7] = D1-hM3Dq mice, 0.01 to 1 mg kg-1
[8] = D1-hM4Di mice, 0.01 to 1 mg kg-1

Sequence of hM3Dq (P20309 whole entry Y149C/A239G): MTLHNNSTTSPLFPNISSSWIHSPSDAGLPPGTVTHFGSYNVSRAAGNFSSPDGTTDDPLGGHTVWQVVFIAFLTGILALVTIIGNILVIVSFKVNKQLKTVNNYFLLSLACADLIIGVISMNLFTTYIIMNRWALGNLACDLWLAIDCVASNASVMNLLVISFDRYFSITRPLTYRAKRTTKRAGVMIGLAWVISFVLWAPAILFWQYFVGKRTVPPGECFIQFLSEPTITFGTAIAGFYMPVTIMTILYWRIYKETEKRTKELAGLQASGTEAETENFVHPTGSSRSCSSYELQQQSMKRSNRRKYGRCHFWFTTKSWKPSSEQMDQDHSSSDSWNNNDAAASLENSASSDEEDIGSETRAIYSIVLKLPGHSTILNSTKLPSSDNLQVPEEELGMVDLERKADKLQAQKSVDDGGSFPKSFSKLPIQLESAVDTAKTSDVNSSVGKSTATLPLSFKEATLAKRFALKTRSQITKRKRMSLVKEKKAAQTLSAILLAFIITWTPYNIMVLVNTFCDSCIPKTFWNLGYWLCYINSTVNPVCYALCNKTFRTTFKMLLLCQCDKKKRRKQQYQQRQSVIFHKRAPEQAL

c1ccc2c(c1)N=C(N1CCNCC1)c1ccccc1N2 [C21]
brain/serum concentration ratio ([1]; mice, time 10): 0.1059 | brain/serum concentration ratio ([1]; mice, time 30): 0.2543 | brain/serum concentration ratio ([1]; mice, time 60): 0.2987 | brain/serum concentration ratio ([1]; mice, time 120): 0.4106 | brain/serum concentration ratio ([1]; mice, time 240): 0.6284 | brain/serum ratio ([1]; mice, systemic administration): low brain/serum ratios | behavior ([2]; D1-hM3Dq mice, 10 mg/kg): seizure-like behavior | locomotor activity ([2]; D1-hM3Dq mice, 0.1 and 1 mg/kg): robust decrease of locomotor activity | lowest dose activating hM3Dq ([2]; rodents (rats and mice)): 0.1 mg/kg | hM4Di activation, concentration-response points ([3]; Log [compound] -4): 96.8817 | hM4Di activation, concentration-response points ([3]; Log [compound] -4.5): 116.397 | hM4Di activation, concentration-response points ([3]; Log [compound] -5): 108.743 and 111.119 and 118.355 | hM4Di activation, concentration-response points ([3]; Log [compound] -6): 104.765 and 108.926 and 107.08 | hM4Di activation, concentration-response points ([3]; Log [compound] -7): 91.0167 and 106.137 and 98.8868 | hM4Di activation, concentration-response points ([3]; Log [compound] -8): 65.4069 and 99.8095 and 89.0469 | hM4Di activation, concentration-response points ([3]; Log [compound] -9): 48.391 and 67.2323 and 60.3348 | hM4Di activation, concentration-response points ([3]; Log [compound] -10): 22.6996 and 44.1322 and 29.3744 | hM4Di activation, concentration-response points ([3]; Log [compound] -12): 8.666 | hM4Di activation, concentration-response points ([3]; Log [compound] -15): 7.3972 and 3.296 and 3.683 | Gi/o activation, potency relative to clozapine ([3]; cells or tissue expressing hM4Di): less potent than clozapine | locomotor activity ([4]; D1-hM4Di mice, 1 mg/kg): small but significant decrease in locomotor activity | behavior ([4]; D1-hM4Di mice, 10 mg/kg): sedation | dose required to activate hM4Di ([4]; rodents): at least 1 mg kg^-1 | in vivo DREADD occupancy ([11C]CLZ displacement) ([5]; 1 mg/kg IP): ~ 10% | Ki ([6]; read-out: hM4Di Ki, [3H]clozapine competition, HEK-293 membranes): 91 nM

CCN1CCN(C2=Nc3cc(Cl)ccc3Nc3c(F)cccc32)CC1 [JHU37160, 8-Chloro-11-(4-ethylpiperazin-1-yl)-4-fluoro-5H-dibenzo[b,e][1,4]diazepine]
Kp ([1]; time 10): 6.45 | Kp ([1]; time 30): 8.48 | Kp ([1]; time 60): 12.9 | Kp ([1]; time 120): 9.72 | Kp ([1]; time 240): 15.4 | brain to serum concentration ratio ([1]; mice): ~eightfold higher in the brain than serum | brain concentration, mean ([1]; mice, time 10): 15.2721 | serum concentration, mean ([1]; mice, time 10): 2.637 | brain concentration, mean ([1]; mice, time 30): 9.242 | serum concentration, mean ([1]; mice, time 30): 1.58 | brain concentration, mean ([1]; mice, time 60): 8.73 | serum concentration, mean ([1]; mice, time 60): 0.7534 | brain concentration, mean ([1]; mice, time 120): 8.1596 | serum concentration, mean ([1]; mice, time 120): 0.8413 | brain concentration, mean ([1]; mice, time 240): 3.199 | serum concentration, mean ([1]; mice, time 240): 0.319 | locomotor activity [2, 7]: selectively inhibiting locomotor activity | EC50 [3]: 0.2 nM | locomotor activity [4, 8]: selectively inhibiting locomotor activity | Locomotor activity, individual animals (Figure 3 Panel C) ([4]; dose 0.01): 87.297 and 55.7522 and 80.3935 and 127.49 and 164.341 and 150.985 and 118.596 and 28.6623 and 109.457 and 25.9025 and 156.84 | Locomotor activity, individual animals (Figure 3 Panel C) ([4]; dose 0.1): 22.2583 and 26.4102 and 36.6386 and 50.3064 and 38.3173 and 43.9761 and 103.495 and 48.2345 and 24.5922 and 6.944 and 42.5594 | Locomotor activity, individual animals (Figure 3 Panel C) ([4]; dose 1): 71.4509 and 37.5721 and 8.672 and 75.5783 and 18.1309 and 89.8357 and 75.9222 and 7.305 and 23.6013 and 9.934 and 15.3384 | occupancy of striatal DREADDs [5]: 15–20% | Ki [6]: 3.6 nM | improved affinity compared to C21 [6]: ~ 25 fold

CCN1CCN(C2=Nc3cc(Cl)ccc3Nc3cccc(F)c32)CC1 [JHU37152, 8-Chloro-11-(4-ethylpiperazin-1-yl)-1-fluoro-5H-dibenzo[b,e][1,4]diazepine]
Kp ([1]; time 10): 3.52 | Kp ([1]; time 30): 6.76 | Kp ([1]; time 60): 5.99 | Kp ([1]; time 120): 4.52 | Kp ([1]; time 240): 3.05 | brain to serum concentration ratio ([1]; mice): ~eightfold higher in the brain than serum | brain concentration, mean ([1]; mice, time 10): 58.5075 | serum concentration, mean ([1]; mice, time 10): 16.6091 | brain concentration, mean ([1]; mice, time 30): 52.9484 | serum concentration, mean ([1]; mice, time 30): 6.63 | brain concentration, mean ([1]; mice, time 60): 40.9216 | serum concentration, mean ([1]; mice, time 60): 6.9214 | brain concentration, mean ([1]; mice, time 120): 7.985 | serum concentration, mean ([1]; mice, time 120): 2.387 | brain concentration, mean ([1]; mice, time 240): 2.907 | serum concentration, mean ([1]; mice, time 240): 1.533 | locomotor activity [2, 7]: selectively inhibiting locomotor activity | EC50 [3]: 0.5 nM | locomotor activity [4, 8]: selectively inhibiting locomotor activity | Locomotor activity, individual animals (Figure 3 Panel C) ([4]; dose 0.01): 58.5024 and 108.441 and 109.915 and 131.721 and 115.402 and 75.1276 and 118.881 and 108.271 and 41.4007 | Locomotor activity, individual animals (Figure 3 Panel C) ([4]; dose 0.1): 72.1502 and 118.453 and 147.655 and 108.28 and 115.789 and 27.5857 and 55.2206 and 30.1649 and 43.619 | Locomotor activity, individual animals (Figure 3 Panel C) ([4]; dose 1): 21.6168 and 115.427 and 110.069 and 108.688 and 73.7541 and 20.9336 and 36.5894 and 6.171 and 23.7054 | occupancy of striatal DREADDs [5]: 15–20% | Ki [6]: 8.7 nM
